One test deals with T1, MEK1 (Homo sapiens, UniProt Q02750).
T1 construct: purchased SignalChem M02-14H
In words: MEK1 kinase cascade assay (ADP-Glo), inhibition of MEK1 kinase activity. Conditions: 25 nM BRAF, 6.25 nM MEK1, 0.5 μM ERK, 1 mM ATP; 20 min preincubation, 1 hr at 25° C.; read-out: BRAF ADP Glo kinase assay V3 (IC50). The class given is biochemical. An excerpt: (§1) Protein expression and purification: BRAF (445-723) with N-term His-tag and C-term StrepII tag was expressed using the Expi293 system (ThermoFisher) and purified using Strep-Tactin® XT-Superflow (IBA) chromatography. ERK1 (full-length) with N-term His-tag was expressed in Rosetta DE3 cells (Millipore) and purified using HisTrap HP (Cytiva) and Superdex 200 (Cytiva) column chromatography. Full-length MEK1 for TR-FRET assays with N-term His-tag was expressed in BL21DE3 cells (ThermoFisher) and purified using HisTrap HP (Cytiva) and Superdex 200 (Cytiva) column chromatography.
Efficacy of exemplary compounds in inhibition of MEK1 kinase activity: The effect of compound MEK1 inhibition was evaluated using an ADP detection system for kinases, such as the ADP-Glo assay (Promega). The MEK1 kinase cascade assay consisted of 9 μL reaction volumes in 384-well white, opaque Optiplates (PerkinElmer). Compounds were prepared from DMSO stocks in assay buffer (10 mM HEPES pH 7.5, 5 mM MgCl2, 2 mM CHAPS, and 1 mM DTT) and preincubated with 25 nM BRAF for 20 mins at 25° C. prior to addition of 6.25 nM MEK1/0.5 μM ERK/1 mM ATP premix to initiate the kinase reaction. Both BRAF and ERK1 were produced in-house, and MEK1 was purchased from SignalChem (M02-14H). DMSO was kept constant at a final concentration of 1%. After a 1 hr incubation at 25° C., conversion of ATP to ADP was detected using ADP-Glo™ reagents according to the manufacturer's protocol. Luminescence was measured using a CLARIOstar microplate reader (BMG). Percent (%) Inhibition was calculated by normalizing to DMSO control (max) and 1 μM Trametinib (min). % inhibition as a function of compound concentration from 2 replicate wells was fit with a 4-parameter logistic curve equation using GraphPad Prism or CDD Vault to derive IC50 values.
(§2) In this table, for the BRAF ADP Glo kinase assay, “A” indicates IC50 of less than 5 nM; “B” indicates IC50 of between 5 nM to 50 nM; and “C” indicates IC50 of between 50 nM to 500 nM. “D” indicates IC50 of greater than 500 nM. For the BRAF-MEK TR-FRET assay, “A” indicates EC50 of less than 50 nM; “B” indicates EC50 of between 50 nM to 200 nM; and “C” indicates EC50 of between 200 nM to 1 μM. “D′” indicates EC50 of greater than 1 μM. For the AlphaLisa P-ERK assay, “A” indicates IC50 of less than 1 nM; “B” indicates IC50 of between 1 nM to 10 nM; and “C” indicates IC50 of between 10 nM to 100 nM. “D” indicates IC50 of greater than 100 nM. For the cell viability assay, “A” indicates IC50 of less than 1 nM; “B” indicates IC50 of between 1 nM to 10 nM; and “C” indicates IC50 of between 10 nM to 100 nM. “D” indicates IC50 of greater than 100 nM.

For the next test, the system named is BRAF-MEK1. Description: BRAF-MEK TR-FRET assay, stabilization of MEK1 and BRAF interaction. The class given is binding. The conditions noted are these: 4 nM BRAF, 10 nM MEK, 100 μM ATP, 1 hr at 25° C., read-out: BRAF-MEK TR-FRET Assay (EC50, fold stabilization).
Excerpt: as §1
Efficacy of exemplary compounds in stabilization of MEK1 and BRAF interaction: Compound stabilization of BRAF-MEK interaction was evaluated using TR-FRET (Time Resolved Fluorescence Energy Transfer). The FRET assay consisted of His-tagged MEK1 (produced in-house), GST-tagged BRAF (SignalChem, B08-11G), Anti His-Tb Cryptate donor, and Anti GST-XL665 acceptor fluorophores (PerkinElmer) to generate FRET signal upon BRAF-MEK1 binding. Compounds were prepared from DMSO stocks in assay buffer (50 mM Tris pH 7.5, 150 mM NaCl, 1 mM DTT, 0.05% Tween-20, 5 mM MgCl2, and 100 μM ATP) and incubated with 4 nM BRAF and 10 nM MEK for 1 hr at 25° C. 1 ng Anti His-Tb Cryptate/20 ng Anti GST-XL665 premix was then added and incubated for 1 hr at 25° C. TR-FRET was measured using Cytation5 microplate reader (Agilent) using Ex/Em=340/620 nm and Ex/Em=340/665 nm to determine the FRET ratio. Fold stabilization was calculated as FRET signal of treated well/DMSO control. Fold stabilization as a function of compound concentration from 2 replicate wells was fit with a 4-parameter logistic curve equation using GraphPad Prism or CDD Vault to derive EC50 values.
as §2

pEC50, pIC50: −log10 of the molar value. Like-named read-outs stand apart in the source and are kept apart here. A value given as a limit tells only on which side of the number the result lay.

One may read the pIC50 as the negative decadic logarithm of the IC50, by convention in mol/L.

T1 sequence (Q02750 whole entry): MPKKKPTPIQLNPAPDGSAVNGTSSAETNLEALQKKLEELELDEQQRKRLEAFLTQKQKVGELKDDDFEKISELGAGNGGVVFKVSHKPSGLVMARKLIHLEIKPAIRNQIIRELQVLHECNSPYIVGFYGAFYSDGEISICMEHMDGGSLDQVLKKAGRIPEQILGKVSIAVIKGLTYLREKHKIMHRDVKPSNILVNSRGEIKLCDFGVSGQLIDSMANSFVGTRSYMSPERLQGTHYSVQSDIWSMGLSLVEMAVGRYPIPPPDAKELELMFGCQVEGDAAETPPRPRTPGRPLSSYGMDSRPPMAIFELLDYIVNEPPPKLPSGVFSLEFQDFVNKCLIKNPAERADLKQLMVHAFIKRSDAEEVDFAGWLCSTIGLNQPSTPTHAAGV
T1 sequence (P15056 445-723 partner limits assumed): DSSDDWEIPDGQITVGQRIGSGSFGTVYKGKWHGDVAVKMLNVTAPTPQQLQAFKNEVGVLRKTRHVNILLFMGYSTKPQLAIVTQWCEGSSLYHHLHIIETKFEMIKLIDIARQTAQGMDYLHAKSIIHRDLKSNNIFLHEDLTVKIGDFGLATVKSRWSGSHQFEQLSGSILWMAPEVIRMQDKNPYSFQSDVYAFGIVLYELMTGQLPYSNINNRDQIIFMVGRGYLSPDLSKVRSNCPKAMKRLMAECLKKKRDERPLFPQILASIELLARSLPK

Consider `CNS(=O)(=O)Nc1nccc(CN2C(=O)Oc3c(ccc(Oc4nccnn4)c3F)C23CCC3)c1F` [Compound 177, 8-fluoro-3-{[3-fluoro-2-(methylaminosulfonylamino)-4-pyridyl]methyl}-7-(1,2,4-triazin-3-yloxy)-2H,3H-spiro[1,3-benzoxazine-4,1′-cyclobutan]-2-one], for which the negative logarithm of the IC50 (pIC50) on MEK1 is > 8.30. In addition, in the test on BRAF-MEK1, the pEC50 is > 7.30.
As for `CN(C)C(=O)Oc1ccc2c(c1)OC(=O)N(Cc1cccc(NS(=O)(=O)N3CCOCC3)c1F)C2` [Compound 110, 3-(2-fluoro-3-(morpholine-4-sulfonamido)benzyl)-2-oxo-3,4-dihydro-2H-benzo[e][1,3]oxazin-7-yl dimethylcarbamate], the pIC50 at MEK1 is 7.30 to 8.30. Besides, in the test with BRAF-MEK1, the pEC50 was 6.00 to 6.70.
With `CNS(=O)(=O)Nc1nccc(CN2C(=O)Oc3cc(Oc4cccnn4)ccc3[C@H]2C)c1F` (single isomer, unassigned) [Compound 23], the negative logarithm of the IC50 (pIC50) on MEK1 is 7.30 to 8.30. Also, the pEC50 in the test with BRAF-MEK1 was > 7.30.
On to `[2H]C1([2H])c2ccc(Oc3nccnn3)cc2OC(=O)N1Cc1cccc(NS(=O)(=O)NC)c1F` [Compound 31, 3-({2-fluoro-3-[(methylsulfamoyl)amino]phenyl}methyl)-7-(1,2,4-triazin-3-yloxy)-3,4-dihydro(4,4-^2 H2)-2H-1,3-benzoxazin-2-one], for which the negative logarithm of the IC50 (pIC50) on MEK1 was 7.30 to 8.30. The pEC50 in the test with BRAF-MEK1 is > 7.30.
On to `CNS(=O)(=O)Nc1nccc(CN2C(=O)Oc3cc(Oc4ncco4)c(F)cc3C2C)c1F` (single isomer, unassigned) [Compound 186, 6-fluoro-3-{[3-fluoro-2-(methylaminosulfonylamino)-4-pyridyl]methyl}-4-methyl-7-(1,3-oxazol-2-yloxy)-3,4-dihydro-2H-1,3-benzoxazin-2-one], for which the pIC50 at MEK1 is 6.30 to 7.30. Moreover, in the test with BRAF-MEK1 (60 min), the pEC50 is 6.00 to 6.70.
On to `CNS(=O)(=O)Nc1cccc(CN2C(=O)Oc3cc(OC(=O)N(C)C)ccc3[C@H]2C)c1F` [Compound 153, 3-(2-fluoro-3-((N-methylsulfamoyl)amino)benzyl)-4-methyl-2-oxo-3,4-dihydro-2H-benzo[e][1,3]oxazin-7-yl dimethylcarbamate], for which the negative logarithm of the IC50 (pIC50) on MEK1 was 7.30 to 8.30. In the test with BRAF-MEK1, the pEC50 is 6.00 to 6.70.
On to `CNS(=O)(=O)Nc1nccc(CN2C(=O)Oc3cc(Oc4cccnn4)cc(F)c3C23CCC3)c1F` [Compound 171, 5-fluoro-3-{[3-fluoro-2-(methylaminosulfonylamino)-4-pyridyl]methyl}-7-(3-pyridazinyloxy)-2H,3H-spiro[1,3-benzoxazine-4,1′-cyclobutan]-2-one], for which the pIC50 on MEK1 was > 8.30. Also, in the test with BRAF-MEK1, the pEC50 is > 7.30.
As for `CNS(=O)(=O)Nc1cccc(CN2C(=O)Oc3cc(OC(=O)N(C)C)ccc3[C@@H]2C)c1F` [Compound 152, 3-(2-fluoro-3-((N-methylsulfamoyl)amino)benzyl)-4-methyl-2-oxo-3,4-dihydro-2H-benzo[e][1,3]oxazin-7-yl dimethylcarbamate], on MEK1, the pIC50 is 7.30 to 8.30. For the same compound, the pEC50 in the test with BRAF-MEK1 was 6.00 to 6.70.
In the case of `CNS(=O)(=O)Nc1cccc(CN2C(=O)Oc3cc(Oc4ncco4)cc(F)c3[C@@H]2C)c1F` (single isomer, unassigned) [Compound 86, (S)-5-fluoro-3-({2-fluoro-3-(methylsulfamoyl)amino]phenyl}methyl)-4-methyl-7-(1,3-oxazol-2-yloxy)-3,4-dihydro-2H-1,3-benzoxazin-2-one or (R)-5-fluoro-3-({2-fluoro-3-(methylsulfamoyl)amino]phenyl}methyl)-4-methyl-7-(1,3-oxazol-2-yloxy)-3,4-dihydro-2H-1,3-benzoxazin-2-one], the pIC50 at MEK1 was 7.30 to 8.30. Besides, in the test on BRAF-MEK1, the pEC50 is 6.00 to 6.70.
For `CNS(=O)(=O)Nc1nccc(CN2C(=O)Oc3c(ccc(Oc4cccnn4)c3F)C23CCC3)c1F` [Compound 174, 8-fluoro-3-{[3-fluoro-2-(methylaminosulfonylamino)-4-pyridyl]methyl}-7-(3-pyridazinyloxy)-2H,3H-spiro[1,3-benzoxazine-4,1′-cyclobutan]-2-one] the same measures were 7.30 to 8.30 and > 7.30.
With `CN(C)C(=O)Oc1ccc2c(c1)OC(=O)N(Cc1cccc(NS(=O)(=O)N(C)C)c1F)C21CCC1` [Compound 33, 3-({3-[(dimethylsulfamoyl)amino]-2-fluorophenyl}methyl)-2-oxo-2,3-dihydrospiro[1,3-benzoxazine-4,1′-cyclobutan]-7-yl N,N-dimethyl carbamate], on MEK1, the negative logarithm of the IC50 (pIC50) was 7.30 to 8.30. Further, the pEC50 in the test with BRAF-MEK1 was 6.70 to 7.30.
As for `CNS(=O)(=O)Nc1nccc(CN2C(=O)Oc3cc(Oc4ncco4)cnc3[C@@H]2C)c1F` (stereo in doubt) [Compound 191, 3-{[3-fluoro-2-(methylaminosulfonylamino)-4-pyridyl]methyl}-4-methyl-7-(1,3-oxazol-2-yloxy)-3,4-dihydro-2H-1-oxa-3,5-diazanaphthalen-2-one], the pIC50 on MEK1 was 6.30 to 7.30. Besides, the pEC50 in the test with BRAF-MEK1 is 6.70 to 7.30.
For `CNS(=O)(=O)Nc1cccc(CN2C(=O)Oc3c(ccc(Oc4cccnn4)c3F)[C@H]2C)c1F` (single isomer, unassigned) [Compound 36] the same measures were 7.30 to 8.30 and 6.70 to 7.30.
Take `CN(C)S(=O)(=O)Nc1nccc(CN2C(=O)Oc3cc(Oc4ncco4)ccc3C23CCC3)c1F` [Compound 179, 3-{[2-(dimethylaminosulfonylamino)-3-fluoro-4-pyridyl]methyl}-7-(1,3-oxazol-2-yloxy)-2H,3H-spiro[1,3-benzoxazine-4,1′-cyclobutan]-2-one]: the negative-log IC50 (pIC50) at MEK1 is 7.30 to 8.30. Moreover, in the test on BRAF-MEK1, the pEC50 is 6.00 to 6.70.
For `CNS(=O)(=O)Nc1nccc(CN2C(=O)Oc3cc(Oc4ncco4)cc(F)c3C23COC3)c1F` [Compound 168, 5-fluoro-3-{[3-fluoro-2-(methylaminosulfonylamino)-4-pyridyl]methyl}-7-(1,3-oxazol-2-yloxy)-2H,3H-spiro[1,3-benzoxazine-4,3′-oxetan]-2-one] the same measures were 7.30 to 8.30 and 6.00 to 6.70.
`C[C@H]1c2c(F)cc(Oc3cccnn3)cc2OC(=O)N1Cc1cccc(NS(=O)(=O)C2CC2)c1F` (single isomer, unassigned) [Compound 55]: at MEK1, the pIC50 is 7.30 to 8.30. Further, the pEC50 in the test with BRAF-MEK1 was 6.00 to 6.70.
Turning to `CNS(=O)(=O)Nc1cccc(CN2Cc3cc(F)c(Oc4ncccn4)cc3OC2=O)c1F` [Compound 83, 6-fluoro-3-{[2-fluoro-3-(methylaminosulfonylamino)phenyl]methyl}-7-(2-pyrimidinyloxy)-3,4-dihydro-2H-1,3-benzoxazin-2-one], the pIC50 at MEK1 was 7.30 to 8.30. In the test with BRAF-MEK1, the pEC50 is 6.00 to 6.70.
